A word on the pEC50: it is the negative decadic logarithm of the EC50, by convention in mol/L. The pIC50 is −log10 of the IC50, conventionally taken in molar units.

The target of assay [1] is T1, human GLP-1 receptor (Homo sapiens, UniProt P43220).
T1 construct: expressed in transfected cells; host or cells: BHK cells (parent line BHKTS13), clone FCW467-12A; membrane preparation
Briefly: In vitro potency: CRE luciferase reporter gene assay in BHK cells expressing the human GLP-1 receptor. Type of assay: cell-based. On the procedure: The purpose of this example is to test the activity, or potency, of the GLP-1 derivatives in vitro. The in vitro potency is the measure of human GLP-1 receptor activation in a whole cell assay.
In vitro potency was determined by measuring the response of the human GLP-1 receptor in a reporter gene assay. The assay was performed in a stably transfected BHK cell line that expresses the human GLP-1 receptor and contains the DNA for the cAMP response element (CRE) coupled to a promoter and the gene for firefly luciferase (CRE luciferase). When the human GLP-1 receptor is activated it results in the production of cAMP, which in turn results in the luciferase protein being expressed. When assay incubation is completed the luciferase substrate (luciferin) is added and the enzyme converts luciferin to oxyluciferin to produce bioluminescence. The luminescence is measured as the readout for the assay.
The cells were cultured at 5% CO2 in cell culture medium. They were aliquoted and stored in liquid nitrogen. Before each assay an aliquot was taken up and washed twice in PBS before being suspended at the desired concentration in the assay specific buffer.
The assay buffer consisted of 2% ovalbumin and 0.2% Pluronic F-68 in assay medium.
1) Cell stocks were thawed in a 37° C. water bath.
2) Cells were washed three times in PBS.
3) Cells were counted and adjusted to 5×10^3 cells/50 μl (1×10^5 cells/ml) in assay medium. A 50 μl aliquot of cells was transferred to each well in the assay plate.
4) Stocks of the test compounds and reference compounds were diluted to a concentration of 0.2 μM in assay buffer. […] 8) A 100 μl aliquot of steadylite plus reagent was added to each well of the assay plate. 9) Each assay plate was covered with aluminum foil to protect it from light and shaken for 30 min at room temperature. 10) Each assay plate was read in a BioTek Synergy 2 Multi-Mode Reader. Calculations and Results
The data from the BioTek Synergy 2 Multi-Mode Reader were transferred to GraphPad Prism software. The software performs a non-linear regression (log(agonist) vs response (three parameters)).
A minimum of two replicates were measured for each sample. The reported EC50 values are averages of all of the measured values for each compound.
(In a reporter assay the amount or activity of a reporter protein is the signal.)

Assay [2] addresses T1, human GLP-1 receptor. The assay can be described thus: GLP-1 receptor binding: competitive binding assay (125I-GLP-1, SPA) on isolated membranes at low and high HSA. The method, then:
The purpose of this example is to test the receptor binding of the GLP-1 derivatives in vitro. The receptor binding is a measure of affinity of a derivative for the human GLP-1 receptor.
Each derivative is added in a series of concentrations to isolated membranes containing the human GLP-1 receptor and displacement of the labelled ligand is monitored. The receptor binding is reported as the concentration at which half of the labelled ligand is displaced from the receptor, the IC50 value.
Buffer 1 consisted of 20 mM Na-HEPES plus 10 mM EDTA and pH was adjusted to 7.4. Buffer 2 consisted of 20 mM Na-HEPES plus 0.1 mM EDTA and pH was adjusted to 7.4. Assay buffer consisted of 50 mM HEPES supplemented with 5 mM EGTA, 5 mM MgCl2, 0.005% Tween 20 and pH was adjusted to 7.4. An 8% albumin stock consisted of HSA dissolved at 8% (w/v) in assay buffer. An 0.02% albumin stock consisted of HSA dissolved at 0.02% (w/v) in assay buffer.
The cells express the human GLP-1 receptor.
The cells were grown at 5% CO2 in DMEM, 10% fetal calf serum, 1% Pen/Strep (Penicillin/Streptomycin) and 1.0 mg/ml of the selection marker G418. To make a membrane preparation the cells were grown to approximately 80% confluence. The cells were washed twice in phosphate-buffered saline and harvested. The cells were pelleted using a brief centrifugation and the cell pellet was kept on ice. […] The homogenate was centrifuged for 15 minutes. The pellet was re-suspended (homogenised) in 10 ml buffer 2 and centrifuged. This step was repeated once more. The resulting pellet was re-suspended in buffer 2 and the protein concentration was determined. The membranes were aliquoted and stored at minus 80° C.
1. […] Assay continued with step 3.
2. For the receptor binding assay in the presence of high HSA (2%) 50 μl of the 8% albumin stock was added to each well of an assay plate. Assay continued with step 3.
4. Cell membrane aliquots were thawed and diluted to their working concentration. Fifty μl were added to each well in the assay plate.
5. WGA SPA beads were suspended in assay buffer at 20 mg/ml. The suspension was diluted to 10 mg/ml in assay buffer just prior to addition to the assay plate. Fifty μl were added to each well in the assay plate.
6. […] A 25 μl aliquot was reserved for measuring total counts/well.
7. The assay plate was incubated for 2 h at 30° C.
8. The assay plate was centrifuged for 10 min.
9. The assay plate was read in a Packard TopCount NXT instrument.
The data from the TopCount instrument were transferred to GraphPad Prism software. Individual replicates were analysed using non-linear regression. IC50 values were calculated by the software and reported in nM. The reported values are averages of all of the measured values for each compound.

The mark [3] stands for this setting: Low HSA IC50, low HSA (max. 0.001% final assay concentration).
The mark [4] stands for this setting: high HSA (2.0% final assay concentration), read-out: High HSA IC50.

pEC50, pIC50: −log10 of the molar value. Like-named read-outs stand apart in the source and are kept apart here. Non-standard residues stand in square brackets, D forms with d. Residues, ends and D or L forms follow the SMILES beside them. Groups on a side chain read outwards from the residue. *: point of attachment. X2 = O=C(O)CCCCCCCCCCCCCCCCCCC(=O)NC[C@H]1CC[C@H](C(=O)N[C@@H](CCC(=O)NCCCN(CCCNC(=O)CC[C@H](NC(=O)[C@H]2CC[C@H](CNC(=O)CCCCCCCCCCCCCCCCCCC(=O)O)CC2)C(=O)O)CC(=O)*)C(=O)O)CC1; AEEA = NCCOCCOCC(=O)O; Aib = CC(C)(N)C(=O)O

T1 sequence (P43220 24-463): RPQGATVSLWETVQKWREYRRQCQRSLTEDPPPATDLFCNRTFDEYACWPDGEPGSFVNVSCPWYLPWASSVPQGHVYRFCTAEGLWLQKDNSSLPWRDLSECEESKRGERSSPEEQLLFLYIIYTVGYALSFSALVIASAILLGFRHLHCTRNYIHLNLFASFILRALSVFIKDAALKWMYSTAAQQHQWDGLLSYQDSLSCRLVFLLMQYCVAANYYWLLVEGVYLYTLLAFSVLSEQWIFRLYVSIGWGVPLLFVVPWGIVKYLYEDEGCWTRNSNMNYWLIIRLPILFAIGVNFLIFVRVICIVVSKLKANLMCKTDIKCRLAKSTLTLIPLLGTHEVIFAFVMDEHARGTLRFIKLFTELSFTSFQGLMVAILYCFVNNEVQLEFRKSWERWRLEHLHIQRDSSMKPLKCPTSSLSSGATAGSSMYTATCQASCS

Turning to `CC[C@H](C)[C@H](NC(=O)[C@H](Cc1ccccc1)NC(=O)[C@H](CCC(=O)O)NC(=O)[C@H](CCCNC(=N)N)NC(=O)[C@H](C)NC(=O)[C@H](C)NC(=O)[C@H](CCC(N)=O)NC(=O)[C@H](CCC(=O)O)NC(=O)[C@H](CCC(=O)O)NC(=O)[C@H](CC(C)C)NC(=O)[C@H](Cc1ccc(O)cc1)NC(=O)[C@H](CO)NC(=O)[C@H](CO)NC(=O)[C@@H](NC(=O)[C@H](CC(=O)O)NC(=O)[C@H](CO)NC(=O)[C@@H](NC(=O)[C@H](Cc1ccccc1)NC(=O)[C@@H](NC(=O)CNC(=O)[C@H](CCC(=O)O)NC(=O)C(C)(C)NC(=O)[C@@H](N)Cc1c[nH]cn1)[C@@H](C)O)[C@@H](C)O)C(C)C)C(=O)N[C@@H](C)C(=O)N[C@@H](Cc1c[nH]c2ccccc12)C(=O)N[C@@H](CC(C)C)C(=O)N[C@H](C(=O)N[C@@H](CCCNC(=N)N)C(=O)NCC(=O)N[C@@H](CCCNC(=N)N)C(=O)N[C@@H](CCCCNC(=O)CN(CCCNC(=O)COCCOCCNC(=O)COCCOCCNC(=O)COCCOCCNC(=O)COCCOCCNC(=O)CC[C@H](NC(=O)[C@H]1CC[C@H](CNC(=O)CCCCCCCCCCCCCCCS(=O)(=O)O)CC1)C(=O)O)CCCNC(=O)COCCOCCNC(=O)COCCOCCNC(=O)COCCOCCNC(=O)COCCOCCNC(=O)CC[C@H](NC(=O)[C@H]1CC[C@H](CNC(=O)CCCCCCCCCCCCCCCS(=O)(=O)O)CC1)C(=O)O)C(=O)O)C(C)C` [Example 22, N{Epsilon-37}-[2-[bis[3-[[2-[2-[2-[[2-[2-[2-[[2-[2-[2-[[2-[2-[2-[[(4S)-4-carboxy-4-[[4-[(16-sulfohexadecanoylamino)methyl]cyclohexanecarbonyl]amino]butanoyl]amino]ethoxy]ethoxy]acetyl]amino]ethoxy]ethoxy]acetyl]amino]ethoxy]ethoxy]acetyl]amino]ethoxy]ethoxy]acetyl]amino]propyl]amino]acetyl]-[Aib8,Glu22,Arg26,Arg34,Lys37]-GLP-1-(7-37)-peptide], in assay [1] (whole cell reporter gene assay, BHK cells, human GLP-1 receptor, average of at least two replicates, read-out: EC50), the pEC50 is 11.80. The pIC50 is 9.92 in assay [2] (setting [3]) and 7.33 in assay [2] (setting [4]).

Regarding `CC[C@H](C)[C@H](NC(=O)[C@H](Cc1ccccc1)NC(=O)[C@H](CCC(=O)O)NC(=O)[C@H](CCCNC(=N)N)NC(=O)[C@H](C)NC(=O)[C@H](C)NC(=O)[C@H](CCC(N)=O)NC(=O)[C@H](CCC(=O)O)NC(=O)[C@H](CCC(=O)O)NC(=O)[C@H](CC(C)C)NC(=O)[C@H](Cc1ccc(O)cc1)NC(=O)[C@H](CO)NC(=O)[C@H](CO)NC(=O)[C@@H](NC(=O)[C@H](CC(=O)O)NC(=O)[C@H](CO)NC(=O)[C@@H](NC(=O)[C@H](Cc1ccccc1)NC(=O)[C@@H](NC(=O)CNC(=O)[C@H](CCC(=O)O)NC(=O)C(C)(C)NC(=O)[C@@H](N)Cc1c[nH]cn1)[C@@H](C)O)[C@@H](C)O)C(C)C)C(=O)N[C@@H](C)C(=O)N[C@@H](Cc1c[nH]c2ccccc12)C(=O)N[C@@H](CC(C)C)C(=O)N[C@H](C(=O)N[C@@H](CCCNC(=N)N)C(=O)NCC(=O)N[C@@H](CCCNC(=N)N)C(=O)N[C@@H](CCCCNC(=O)CN(CCCNC(=O)COCCOCCNC(=O)COCCOCCNC(=O)COCCOCCNC(=O)COCCOCCNC(=O)COCCOCCNC(=O)COCCOCCNC(=O)CC[C@H](NC(=O)[C@H]1CC[C@H](CNC(=O)CCCNC(=O)CCCCCCCCCCCCCCCS(=O)(=O)O)CC1)C(=O)O)CCCNC(=O)COCCOCCNC(=O)COCCOCCNC(=O)COCCOCCNC(=O)COCCOCCNC(=O)COCCOCCNC(=O)COCCOCCNC(=O)CC[C@H](NC(=O)[C@H]1CC[C@H](CNC(=O)CCCNC(=O)CCCCCCCCCCCCCCCS(=O)(=O)O)CC1)C(=O)O)C(=O)O)C(C)C` [Example 21], the negative-log EC50 (pEC50) in assay [1] was 11.82. Also, the pIC50 in assay [2] (High HSA IC50, high HSA (2.0% final assay concentration)) is 7.80; in assay [2] (setting [3]), 9.89.

Consider `CC[C@H](C)[C@H](NC(=O)[C@H](Cc1ccccc1)NC(=O)[C@H](CCC(=O)O)NC(=O)[C@H](CCCNC(=N)N)NC(=O)[C@H](C)NC(=O)[C@H](C)NC(=O)[C@H](CCC(N)=O)NC(=O)[C@H](CCC(=O)O)NC(=O)[C@H](CCC(=O)O)NC(=O)[C@H](CC(C)C)NC(=O)[C@H](Cc1ccc(O)cc1)NC(=O)[C@H](CO)NC(=O)[C@H](CO)NC(=O)[C@@H](NC(=O)[C@H](CC(=O)O)NC(=O)[C@H](CO)NC(=O)[C@@H](NC(=O)[C@H](Cc1ccccc1)NC(=O)[C@@H](NC(=O)CNC(=O)[C@H](CCC(=O)O)NC(=O)C(C)(C)NC(=O)[C@@H](N)Cc1c[nH]cn1)[C@@H](C)O)[C@@H](C)O)C(C)C)C(=O)N[C@@H](C)C(=O)N[C@@H](Cc1c[nH]c2ccccc12)C(=O)N[C@@H](CC(C)C)C(=O)N[C@H](C(=O)N[C@@H](CCCNC(=N)N)C(=O)NCC(=O)N[C@@H](CCCCNC(=O)COCCOCCNC(=O)COCCOCCNC(=O)COCCOCCNC(=O)COCCOCCNC(=O)COCCOCCNC(=O)COCCOCCNC(=O)CN(CCCNC(=O)CC[C@H](NC(=O)[C@H]1CC[C@H](CNC(=O)CCCCCCCCCCCCCCCCCCC(=O)O)CC1)C(=O)O)CCCNC(=O)CC[C@H](NC(=O)[C@H]1CC[C@H](CNC(=O)CCCCCCCCCCCCCCCCCCC(=O)O)CC1)C(=O)O)C(=O)NCC(=O)O)C(C)C` [Example 30] (H-H[Aib]EGTFTSDVSSYLEEQAAREFIAWLVRGK([AEEA-AEEA-AEEA-AEEA-AEEA-AEEA-X2])G-OH; N-terminus and C-terminus assumed), for which the pIC50 in assay [2] (setting [4]) is 8.39.

The record behind these values is US11572398B2, “GLP-1 derivatives and uses thereof” (Novo Nordisk A/S, priority 2014, dated 2023).
